This assay concerns mTOR. As to the kind of experiment: Western blot for mTOR inhibition (S6K1 phosphorylation). Format: cell-based. The settings on record: immunoblot. The method, then: Screening of autophagy enhancer. […] Luciferase assay. Firefly and Renilla luciferase assays were conducted using the Dual-Luciferase Reporter Assay System (Promega) according to the manufacturer's recommendation. In brief, cells were lysed in 1× lysis buffer and subjected to a single round of freezing/thawing. Firefly luciferase was determined after mixing 5 μl of lysate with 25 μl of Luciferase Assay Reagent II. Renilla luciferase was then determined after further addition of 20 ul of Stop&Glo Reagent. Cell culture and media and drugs treatment. […] Cytotoxicity was determined by the measurement of LDH release in cell culture media using the LDH kit (Roche), according to the protocol from the manufacturer. […] Imaging and image quantification. […] Formation of acidic vesicular organelles was quantitated by staining the cells with acridine orange (Invitrogen, 5 ug/ml, 10 min). […] Cells or tissues were solubilized in lysis buffer supplemented with protease and phosphatase inhibitors and protein concentration was measured by the Bradford method. Ten to 30 micrograms were loaded on 4-12% Bis-Tris gel (NUPAGE, Invitrogen) or 8-15% SDS-PAGE, transferred to PVDF membranes and analyzed by western blot using the ECL method (Pierce). […] Protein levels were quantified by using ImageJ software analysis. […]
(In general: Immunoblotting shows a protein as a band on a membrane.)

As to `COc1oc(-c2ccccc2Cl)nc1S(=O)(=O)c1ccccc1` [MSL-7, 2-(2-chlorophenyl)-5-methoxy-4-(phenylsulfonyl) oxazole], the mTOR inhibition entry was “without cellular toxicity or mTOR inhibition”.
Next, `CSc1oc(-c2ccccc2)nc1S(=O)(=O)c1ccc(F)cc1` [MSL]: “does not involve mTOR inhibition”.

The record behind these values is patent US10881642B2, “Autophagy enhancer and use thereof” (Industry-Academic Cooperation Foundation, Yonsei University, priority 2016, dated 2021).
